Results published in patent US20250035641A1, “COMPOSITIONS AND METHODS RELATED TO PROTEIN LABELING” (The Chinese University of Hong Kong, priority 2023, published 2025).
“Also recorded” adds a separate entry of the source.

Experiments:
Assay type in all cases: cell-based
[1] = test system: cellular global O-GlcNAc level; test: Global (pan-RL2) O-GlcNAc level by immunoblot
Text: After illustrating the potency and generality of the OGTAC strategy, we then assessed its specificity towards the global O-GlcNAc proteome. We quantified the total pan-O-GlcNAc level (except for the specific band for target POI) using immunoblotting. For well-validated OGT substrates such as CK2α relatively low fOGT protein amount is sufficient to facilitate the inducing effect of our OGTAC-1. […] HTN-BRD4:fOGT=1:0.01 condition is not sufficient for OGTAC to exert inducing effects even though ternary complex was formed (FIG. 15). We hypothesize that an optimal threshold of OGT protein levels is required for efficient O-GlcNAc transfer to BRD4. To address the trade-off between potency and specificity on BRD4, we developed a truncated fOGT system. The tetratricopeptide repeat (TPR) domain of fOGT is responsible for substrate recognition; truncation of TPR domain can reduce its activity towards protein substrates. We therefore constructed and compared several truncated fOGT (tfOGT) plasmids.
(§1) In general, cells (from 12 well plate) were lysed by 80 μl RIPA lysis buffer (Thermo Scientic 89901) supplemented with 20 μM OGA inhibitor (Thaimet G, Bidepharm BD571819) and 100X protease inhibitor (MedChemExpress, HY-K0010), incubated on ice for 20 min, spun down at 14,000 RPM at 4° C. for 15 mins, and the supernatant were collected for bicinchoninic acid (BCA) assay and normalizedeto a final 2 mg/mL concentration. About 30 μg of protein samples were loaded for sodium dodecyl sulfatepolyacrylamide gel electrophoresis (SDS-PADE) and blotted with indicated antibodies.

HTN-BRD4 = biological target: T1, HTN-BRD4 (Homo sapiens, UniProt O60885+P62942, F37V); test: IP-WB of HTN-BRD4 O-GlcNAcylation (RL2) in HEK293T cells co-expressing fOGT; details: for region of induced HTN-BRD4 O-GlcNAcylation: HTN-BRD4:fOGT=1:0.05, truncated/mutant constructs
T1 construct: HaloTag fragment; expressed in transfected cells; host or cells: HEK293T
Protocol: We next assess their potency in inducing HTN-BRD4 O-GlcNAcylation in cell. […]
For each IP reaction, 2.2×10^6 HEK293T cells were seed in 10 cm dish. After cells attached, transfection reagents and plasmids were prepared and added in DMEM. After 24 h transfection, media were replaced by fresh warm complete media with DMSO or probes. For washout study, after 4 h treatment, media with DMSO or OGTAC-4 (500 nM) were replaced by fresh media with DMSO or AP1867 (50 μM) for further incubation. After certain time of OGTACs treatment, cells were collected by cold PBS and lysed by 200 μL complete IP lysis buffer. The lysate was incubated on ice for 20 min, spun down at 14,000 RPM at 4° C. for 15 mins, and the supernatant were collected for bicinchoninic acid (BCA) assay and normalized to a final 2 mg/mL. For input, 20 μL of diluted sample was reacted with equal volume of 10 μM TMR ligand in IP lysis buffer and rotate gently at RT for 15 mins. The remaining samples were subjected to protein A/G magnetic beads (MedChemExpress, HY-K0202), which pre-binding with protein target protein antibody. For samples for LC-MS/MS or HTN-BRD4 mutant constructs. Halo-Trap Magnetic Agarose (Proteintech, otma) was used to incubate with protein lysates. After gentle rotation at 4° C. for at least 16 h, the beads were washed with IP lysis buffer and boiled in 40 μL 2×SDS-loading buffer (Biorad #1610747) for 5 mins to elute proteins from beads. Eluted samples were directly subjected into WB analysis.
as §1

[2] = biological target: T2, fOGT (FKBP12^F36V fused-OGT) (Homo sapiens, UniProt P62942, F37V); test: Intact cell CETSA (fOGT engagement); details: HEK-293T, 4 h, HEK293T HTN-BRD4:fOGT=1:0.05
T2 construct: expressed in transfected cells; host or cells: HEK293T
T2 sequence (P62942 whole entry F37V, the tested form may be a part): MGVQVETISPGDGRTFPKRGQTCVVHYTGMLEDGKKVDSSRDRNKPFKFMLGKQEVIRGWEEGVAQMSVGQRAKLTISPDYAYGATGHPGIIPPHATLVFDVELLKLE
Protocol: For fOGT engagement, we established a cellular thermal shift assay (CETSA). Using same co-expressing system, we treated cells with OGTAC 1-3 for 4 h, and conducted heat challenge to intact cells at a series of temperature to determine the corresponding melting temperature (Tm). […] HEK293T cells (2.5×10^6 cells) were seeded in 10 cm culture dish overnight for attachment. On the next day, cells were transfected with HTN-BRD4:fOGT=1:0.05 plasmid for 24 hours until ˜90% confluence. After treatment with 5 μM compounds or DMSO, cells were collected and washed with PBS. Subsequently, cells were re-suspended in 500 μL PBS and equally divided into 50 μL aliquots. The tubes were subjected to heat challenge at 37-53° C. for 5 mins, followed by cooling on ice. Cells were lysed by three repeated freeze-thaw cycles with liquid nitrogen and water bath. Lastly, cells were centrifuged at 14000 RPM for 15 mins and supernatants were collected for Western Blot analysis.

T1 sequence (P62942 whole entry F37V, stated change not applied, other chains not shown, the tested form may be a part): as the sequence (P62942 whole entry F37V, the tested form may be a part) above

Row | efficacy as O-GlcNAcylation inducer (HTN-BRD4) | fold increase of RL2 signal of BRD4 (HTN-BRD4; 640 nM, 2 h) | fold increase of RL2 signal of BRD4 (HTN-BRD4; 640 nM, 4 h) | concentration from which inducing effect declined (hook effect) (HTN-BRD4; 4 h) | region of induced HTN-BRD4 O-GlcNAcylation (HTN-BRD4) | ΔTm at 5 µM [2] | time at which O-GlcNAcylation of HTN-BRD4 was induced (HTN-BRD4; 640 nM) | time of peak induction of HTN-BRD4 O-GlcNAcylation (HTN-BRD4; 640 nM, longest time point) | lowest concentration promoting BRD4 O-GlcNAcylation and ternary complex (HTN-BRD4; 4 h, 3 nM conducted once) | O-GlcNAcylation inducing effect on HTN-BRD4 (HTN-BRD4; HTN-BRD4:fOGT=1:0.01 system) | Compound | cellular global O-GlcNAc level ([1]; 125 nM, HTN-CK2α:fOGT=1:0.01) | pan-RL2 level ([1]; HTN-BRD4:fOGT system, dose-response, 4 h) | HTN-BRD4 O-GlcNAcylation inducing potency (HTN-BRD4; 5 μM, 4 h) | global O-GlcNAc level ([1]; 0tfOGT:HTN-BRD4 system) | global O-GlcNAc levels during reversibility study ([1]; HTN-BRD4:0tfOGT, washout study)
1 | submicromolar efficacy | 2.5 fold | around 2.8 fold | 1.6 µM | C-terminal region (S1367-F1224) | 1.4 °C | – | – | – | – | CC[C@H](C(=O)N1CCCC[C@H]1C(=O)O[C@H](CCc1ccc(OC)c(OC)c1)c1cccc(OCC(=O)NCCOCCOCCCCCCCl)c1)c1cc(OC)c(OC)c(OC)c1 [OGTAC-1, (R)-1-(3-(2-((2-(2-((6-chlorohexyl)oxy)ethoxy)ethyl)amino)-2-oxoethoxy)phenyl)-3-(3,4-dimethoxyphenyl)propyl (S)-1-((S)-2-(3,4,5-trimethoxyphenyl)butanoyl) piperidine-2-carboxylate] | not significantly changed | not affected | best O-GlcNAcylation inducing potency among three OGTACs; also recorded: outstanding potency | – | –
2 | submicromolar efficacy | – | – | – | C-terminal region (S1367-F1224) | – | ≤ 2 h | 24 h | 3 nM | No O-GlcNAcylation inducing effect | CC[C@H](C(=O)N1CCCC[C@H]1C(=O)O[C@H](CCc1ccc(OC)c(OC)c1)c1cccc(OCC(=O)NCCCCCCNC(=O)C[C@@H]2N=C(c3ccc(Cl)cc3)c3c(sc(C)c3C)-n3c(C)nnc32)c1)c1cc(OC)c(OC)c(OC)c1 [OGTAC-4, (R)-1-(3-(2-((6-(2-((S)-4-(4-chlorophenyl)-2,3,9-trimethyl-6H-thieno[3,2-f[]8 1,2,4]triazolo[4,3-a][1,4]diazepin-6-yl)acetamido)hexyl)amino)-2-oxoethoxy)phenyl)-3-(3,4-dimethoxyphenyl)propyl (S)-1-((S)-2-(3,4,5-trimethoxyphenyl)butanoyl)piperidine-2-carboxylate] | – | – | – | without disruption of global O-GlcNAc level | remained unchanged
